Data: patent publication US20130217694A1, “METHOD OF REDUCING THE SEVERITY OF INFLAMMATORY DERMATOLOGICAL CONDITIONS” (Allergan, Inc.., priority 2003, published 2013)

Tests used:
[1] = target: T1, human α-2A receptor (Homo sapiens, UniProt P08913); settings: percent efficacy relative to brimonidine
T1 sequence (P08913 1-465): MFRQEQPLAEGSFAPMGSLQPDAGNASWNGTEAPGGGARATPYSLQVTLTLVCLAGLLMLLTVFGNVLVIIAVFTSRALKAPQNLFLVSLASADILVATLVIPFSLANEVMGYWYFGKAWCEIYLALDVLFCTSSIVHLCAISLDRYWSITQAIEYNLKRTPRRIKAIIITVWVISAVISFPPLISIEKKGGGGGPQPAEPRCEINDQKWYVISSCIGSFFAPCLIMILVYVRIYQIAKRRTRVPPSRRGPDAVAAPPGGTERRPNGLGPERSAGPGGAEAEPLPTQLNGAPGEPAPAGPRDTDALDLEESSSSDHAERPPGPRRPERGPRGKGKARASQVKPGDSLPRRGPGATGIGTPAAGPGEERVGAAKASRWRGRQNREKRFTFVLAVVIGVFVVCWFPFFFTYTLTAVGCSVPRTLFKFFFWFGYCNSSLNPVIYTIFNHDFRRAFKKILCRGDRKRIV
Description: (§1) The human α-2A and α-2C receptor supernatants were added, in varying amounts, to naive PC12 cells, which were then incubated for 48 hours. The transduced cell populations were replated at a lower density and grown in media containing 100 ug/ml puromycin.
(§2) Intracellular cAMP measurement was performed as follows. PC12 cells stably expressing the human α-2A or human α-2C adrenergic receptors were plated in 96-well poly-D-lysine coated plates at a density of 30,000 cells per well in 100 μl DMEM supplemented with 10% horse serum, 5% heat inactivated fetal bovine serum, 1% antibiotic-antimycotic and 100 μg/ml puromycin. Cells were grown overnight at 37° C. and 5% CO2. Cells were dosed by adding an equal volume of media containing IBMX (to a final concentration of 1 mM), forskolin (to a final concentration of 10 μM) and the appropriate drug dilution (to a final concentration of between 10^−5 M and 10^−12 M). After a 10 minute incubation, the media was aspirated and the cells lysed with 200 μl lysis buffer (Amersham Biosciences; Piscataway, N.J.). Plates were stored at −20° C. for up to 24 hours prior to assay. Intracellular cAMP was determined using the Biotrak cAMP enzyme immunoassay system (Amersham Biosciences) according to the manufacturer's instructions. Plates were read on a plate reader at 450 nm.

[2] = target: T2, bovine α-1A adrenergic receptor (Bos taurus, UniProt P18130); test: Intracellular Ca+2 response in HEK293 cells expressing bovine α-1A receptor; type: cell-based; settings: for bovine α1A % E: percent efficacy relative to phenylephrine; for agonist activity at the α-1A receptor: result in words
T2 sequence (P18130 1-466): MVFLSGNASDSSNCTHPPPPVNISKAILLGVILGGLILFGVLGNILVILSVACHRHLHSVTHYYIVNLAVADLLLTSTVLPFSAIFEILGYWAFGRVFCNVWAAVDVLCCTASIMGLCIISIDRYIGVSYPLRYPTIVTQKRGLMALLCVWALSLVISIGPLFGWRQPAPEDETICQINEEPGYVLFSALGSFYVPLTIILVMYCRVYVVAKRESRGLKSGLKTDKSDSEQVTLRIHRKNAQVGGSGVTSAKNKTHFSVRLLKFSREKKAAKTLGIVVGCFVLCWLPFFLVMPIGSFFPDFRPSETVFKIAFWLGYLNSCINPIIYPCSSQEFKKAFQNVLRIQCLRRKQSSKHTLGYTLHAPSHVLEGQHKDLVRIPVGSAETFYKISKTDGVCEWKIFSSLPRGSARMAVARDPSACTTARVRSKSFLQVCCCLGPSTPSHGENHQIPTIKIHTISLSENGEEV
Description: The bovine α-1A and hamster α-1B receptor supernatants were added, in varying amounts, to naive HEK293 cells, which were then incubated for 48 hours. The transduced cell populations were replated at a lower density and grown in media containing 0.25 ug/ml puromycin. […] Receptor density was measured in a prazosin radioligand binding assay.
Intracellular Ca^+2 responses were measured as follows in HEK293 cells stably expressing either the bovine α-1A or hamster α-1B adrenergic receptor. Between 40,000 to 50,000 cells were plated per well in 96-well poly-D-lysine coated plates in 0.2 ml DMEM containing 10% heat-inactivated fetal calf serum, 1% antibiotic-antimycotic and 0.25 μg/ml puromycin one day prior to use. Cells were washed twice with HBSS supplemented with 10 mM HEPES, 2.0 mM CaCl2 and 2.5 mM probenicid, and subsequently incubated at 37° C. for 60 minutes with 4 μM Fluo-4 (Molecular Probes; Eugene, Oreg.). The extracellular dye was washed from the plates twice prior to placing the plates in the fluorometric imaging plate reader (FLIPR; Molecular Devices; Sunnyvale, Calif.). Ligands were diluted in HBSS and aliquoted into a 96-well microplate. Drugs were tested over the concentration range of 0.64 nM to 10,000 nM. Data for Ca^+2 responses were obtained in arbitrary fluorescence units.

[3] = target: T3, human α-2C receptor (Homo sapiens, UniProt P18825); test: Inhibition of forskolin-induced cAMP accumulation in PC12 cells expressing human α-2C receptor; type: cell-based; settings: percent efficacy relative to brimonidine
T3 construct: expressed in transfected cells; host or cells: PC12 cells (retroviral vector pCL BABE Puro)
T3 sequence (P18825 1-462): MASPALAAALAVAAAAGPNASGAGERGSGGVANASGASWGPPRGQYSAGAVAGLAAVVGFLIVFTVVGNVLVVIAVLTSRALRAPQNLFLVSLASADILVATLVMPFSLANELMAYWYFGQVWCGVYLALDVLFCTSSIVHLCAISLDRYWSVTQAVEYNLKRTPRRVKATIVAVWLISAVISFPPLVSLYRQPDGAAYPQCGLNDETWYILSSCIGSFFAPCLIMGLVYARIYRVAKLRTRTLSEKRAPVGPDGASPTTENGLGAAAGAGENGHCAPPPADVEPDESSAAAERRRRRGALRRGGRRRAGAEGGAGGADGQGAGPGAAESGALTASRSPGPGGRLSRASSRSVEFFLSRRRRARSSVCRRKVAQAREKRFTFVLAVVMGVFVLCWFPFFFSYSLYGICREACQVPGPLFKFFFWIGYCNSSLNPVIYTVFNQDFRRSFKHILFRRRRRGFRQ
Description: as §1, §2

SMILES	human α2A % E [1]	bovine α1A % E [2]	agonist activity at the α-1A receptor [2]	human α2C % E [3]
Clc1cccc(Cl)c1N=C1NCCN1 [Clonidine]	94%	62%	partial agonists	84%
Brc1c(NC2=NCCN2)ccc2nccnc12 [Brimonidine, 5-bromo-6-(2-imidazolin-2-ylamino)quinoxaline]	91%	15%	weak activity	93%
